According to ChEMBL document CHEMBL1201862, “PubChem BioAssay data set” (2004):
Active and inactive are the calls of the source.

Columns and labels:
Coagulation factor XII = molecular target: T1, Coagulation factor XII (Homo sapiens, UniProt P00748); assay type: functional;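 further: activated factor XIIa alpha cleaving a fluorogenic AMC peptide substrate; inhibitor potency from loss of enzyme activity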
T1 sequence (P00748 whole entry): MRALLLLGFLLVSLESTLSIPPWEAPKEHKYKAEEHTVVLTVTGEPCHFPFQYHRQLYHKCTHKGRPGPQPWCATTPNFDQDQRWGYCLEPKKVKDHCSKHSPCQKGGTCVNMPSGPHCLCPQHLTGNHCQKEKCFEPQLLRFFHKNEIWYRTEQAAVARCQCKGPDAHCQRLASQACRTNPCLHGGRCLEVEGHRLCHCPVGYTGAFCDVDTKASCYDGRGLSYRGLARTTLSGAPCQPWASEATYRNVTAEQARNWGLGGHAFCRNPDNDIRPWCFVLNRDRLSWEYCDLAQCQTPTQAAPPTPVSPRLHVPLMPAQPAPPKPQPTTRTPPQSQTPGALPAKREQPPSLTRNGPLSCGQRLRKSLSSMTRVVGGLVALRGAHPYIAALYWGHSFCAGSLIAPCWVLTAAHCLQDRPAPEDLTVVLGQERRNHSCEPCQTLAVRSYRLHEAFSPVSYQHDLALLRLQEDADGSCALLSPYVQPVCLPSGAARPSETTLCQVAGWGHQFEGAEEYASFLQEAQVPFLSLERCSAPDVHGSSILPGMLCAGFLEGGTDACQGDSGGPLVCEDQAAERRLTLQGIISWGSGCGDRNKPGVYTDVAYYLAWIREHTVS

HEK293 [1] = test: cells; assay type: functional, cell-based; details: Homo sapiens
BJ [2] = test: cells; assay type: functional, cell-based; details: Homo sapiens
[3] = cytotoxicity toward DRD oncogenic fibroblasts, dose response, cell-based, non-viral oncogenic, luminescence (AID 1934); assay type: functional; details: Homo sapiens
HEK293 [4] = test: cells; assay type: functional, cell-based; details: Homo sapiens; remark: listed apart in the source
HEK293 [5] = test: cells; assay type: functional, cell-based; details: Homo sapiens; remark: listed apart in the source
BJ [6] = test: cytotoxicity toward BJ-TERT-LT-ST fibroblasts, dose response, cell-based, RAS-independent, luminescence (AID 1935); assay type: functional; details: Homo sapiens;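 further: BJ fibroblasts immortalized with TERT plus LT and ST oncogenes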
BJ [7] = test: cytotoxicity toward BJ-TERT fibroblasts, dose response, cell-based, RAS-independent, luminescence (AID 1933); assay type: functional; details: Homo sapiens
INS1 = test: beta cell apoptosis inhibitors, cytokine rescue, dose response, luminescence, retest (AID 449756); assay type: functional, cell-based; details: Rattus norvegicus;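 further: cell death triggered by IL-1 beta plus TNF-alpha plus IFN-gamma mixture; protective hits raise ATP signal compared with cytokine alone wells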
HEK293 [8] = test: NOD2 signaling inhibitors in MDP-stimulated cells, cell-based, uHTS, luminescence (AID 2001); assay type: functional; details: Homo sapiens
HEK293 [9] = test: NOD1 signaling inhibitors, primary screen, cell-based, luminescence, uHTS (AID 1578); assay type: functional; details: Homo sapiens
[10] = molecular target: Nucleotide-binding oligomerization domain-containing protein 2 (Homo sapiens, UniProt Q9HC29); test: NOD2 signaling inhibitors, cell-based, luminescence, uHTS, HEK293 (AID 1566); assay type: functional
Chain of Nucleotide-binding oligomerization domain-containing protein 2 (Q9HC29 whole entry, the tested form may be a part): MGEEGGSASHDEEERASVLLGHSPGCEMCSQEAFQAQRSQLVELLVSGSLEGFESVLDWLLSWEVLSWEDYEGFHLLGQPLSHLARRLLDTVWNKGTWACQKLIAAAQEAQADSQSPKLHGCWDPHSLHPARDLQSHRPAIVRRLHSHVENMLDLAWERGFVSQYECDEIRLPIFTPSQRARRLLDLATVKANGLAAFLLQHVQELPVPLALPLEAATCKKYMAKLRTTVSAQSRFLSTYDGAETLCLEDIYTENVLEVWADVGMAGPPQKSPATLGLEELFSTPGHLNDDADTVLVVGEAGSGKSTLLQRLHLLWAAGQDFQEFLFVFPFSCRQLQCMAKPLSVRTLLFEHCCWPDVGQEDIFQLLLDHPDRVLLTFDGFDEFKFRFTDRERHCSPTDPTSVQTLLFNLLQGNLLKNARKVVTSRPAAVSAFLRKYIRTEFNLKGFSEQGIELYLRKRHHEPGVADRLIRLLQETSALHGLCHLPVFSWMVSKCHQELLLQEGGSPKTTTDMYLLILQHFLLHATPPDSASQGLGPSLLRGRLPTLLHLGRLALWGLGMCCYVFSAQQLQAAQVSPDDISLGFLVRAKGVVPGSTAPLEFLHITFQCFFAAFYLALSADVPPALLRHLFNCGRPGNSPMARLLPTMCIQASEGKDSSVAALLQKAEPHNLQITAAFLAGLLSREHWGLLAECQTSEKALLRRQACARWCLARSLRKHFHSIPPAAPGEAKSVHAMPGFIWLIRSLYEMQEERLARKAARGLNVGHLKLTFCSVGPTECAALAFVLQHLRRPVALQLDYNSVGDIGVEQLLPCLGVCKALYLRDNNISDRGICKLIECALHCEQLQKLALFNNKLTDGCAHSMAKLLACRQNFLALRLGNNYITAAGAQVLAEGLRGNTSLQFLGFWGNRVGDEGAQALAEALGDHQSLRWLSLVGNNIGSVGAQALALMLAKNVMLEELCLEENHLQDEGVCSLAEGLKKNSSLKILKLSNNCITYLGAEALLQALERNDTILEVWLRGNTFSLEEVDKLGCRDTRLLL

[11] = molecular target: Glucose-6-phosphate 1-dehydrogenase (Homo sapiens, UniProt P11413); test: human G6PD enzyme inhibitors, dose response, selectivity assay for P. falciparum G6PD inhibitor project, biochemical, fluorescence (AID 504792); assay type: functional
Chain of Glucose-6-phosphate 1-dehydrogenase (P11413 whole entry): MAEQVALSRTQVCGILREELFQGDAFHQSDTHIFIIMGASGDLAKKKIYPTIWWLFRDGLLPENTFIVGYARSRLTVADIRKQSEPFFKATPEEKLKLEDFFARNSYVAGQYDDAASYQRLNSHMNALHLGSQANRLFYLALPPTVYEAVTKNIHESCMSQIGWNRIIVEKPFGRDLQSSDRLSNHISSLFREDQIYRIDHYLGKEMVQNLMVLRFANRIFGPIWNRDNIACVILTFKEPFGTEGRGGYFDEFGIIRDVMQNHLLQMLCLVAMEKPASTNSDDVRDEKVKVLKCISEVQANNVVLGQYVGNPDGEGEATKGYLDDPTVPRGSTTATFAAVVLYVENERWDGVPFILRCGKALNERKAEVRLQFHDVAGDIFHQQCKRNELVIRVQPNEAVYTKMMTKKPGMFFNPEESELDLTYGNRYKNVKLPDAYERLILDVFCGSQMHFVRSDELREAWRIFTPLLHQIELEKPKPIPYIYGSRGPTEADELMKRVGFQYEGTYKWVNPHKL

[12] = molecular target: T2, Short transient receptor potential channel 4 (Mus musculus, UniProt Q9QUQ5); test: mouse TRPC4 channel activators, dose response, cell-based, HEK293 TRPC4/mu-opioid, Fluo-4 calcium (AID 434937); assay type: functional
T2 sequence (Q9QUQ5 whole entry): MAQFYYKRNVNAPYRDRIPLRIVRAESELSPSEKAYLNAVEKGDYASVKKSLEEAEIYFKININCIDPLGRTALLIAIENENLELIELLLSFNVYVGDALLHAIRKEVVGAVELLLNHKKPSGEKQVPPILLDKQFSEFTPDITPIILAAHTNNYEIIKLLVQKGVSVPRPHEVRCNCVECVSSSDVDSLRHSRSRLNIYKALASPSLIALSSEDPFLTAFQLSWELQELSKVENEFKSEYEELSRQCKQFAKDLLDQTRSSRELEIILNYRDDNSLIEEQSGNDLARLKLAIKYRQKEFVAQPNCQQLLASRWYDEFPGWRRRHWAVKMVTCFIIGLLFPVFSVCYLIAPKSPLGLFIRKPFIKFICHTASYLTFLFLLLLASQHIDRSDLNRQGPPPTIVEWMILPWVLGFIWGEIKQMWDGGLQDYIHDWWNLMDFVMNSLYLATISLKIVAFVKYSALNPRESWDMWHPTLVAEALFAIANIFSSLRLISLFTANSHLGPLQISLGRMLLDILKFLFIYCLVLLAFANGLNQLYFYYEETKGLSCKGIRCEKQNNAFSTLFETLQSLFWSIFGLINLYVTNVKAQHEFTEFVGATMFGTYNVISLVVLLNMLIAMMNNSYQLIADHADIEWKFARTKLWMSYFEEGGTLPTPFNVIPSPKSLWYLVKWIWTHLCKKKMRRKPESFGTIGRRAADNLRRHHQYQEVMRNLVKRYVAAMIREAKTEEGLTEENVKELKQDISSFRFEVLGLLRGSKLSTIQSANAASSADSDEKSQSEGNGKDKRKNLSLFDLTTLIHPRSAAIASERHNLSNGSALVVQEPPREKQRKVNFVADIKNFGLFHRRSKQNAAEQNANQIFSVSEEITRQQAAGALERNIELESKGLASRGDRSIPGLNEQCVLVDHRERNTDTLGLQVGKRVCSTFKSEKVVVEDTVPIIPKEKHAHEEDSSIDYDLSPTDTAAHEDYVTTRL

CAAX prenyl protease 2 [13] = molecular target: T3, CAAX prenyl protease 2 (Homo sapiens, UniProt Q9Y256); test: human Rce1 protease inhibitors, dose response, biochemical, yeast membranes, quenched-peptide fluorescence, cherry-pick (AID 588849)
T3 sequence (Q9Y256 whole entry): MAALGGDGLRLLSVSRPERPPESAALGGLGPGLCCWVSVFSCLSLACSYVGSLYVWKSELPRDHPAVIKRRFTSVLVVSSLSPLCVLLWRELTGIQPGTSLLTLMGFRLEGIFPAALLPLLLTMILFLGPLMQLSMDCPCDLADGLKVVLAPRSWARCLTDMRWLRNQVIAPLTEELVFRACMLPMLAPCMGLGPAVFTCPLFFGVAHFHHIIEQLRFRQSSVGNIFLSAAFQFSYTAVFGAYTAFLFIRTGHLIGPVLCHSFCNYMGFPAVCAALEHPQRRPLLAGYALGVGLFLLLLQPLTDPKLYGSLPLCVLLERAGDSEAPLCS

CAAX prenyl protease 2 [14] = molecular target: T4, CAAX prenyl protease 2 (Saccharomyces cerevisiae S288c, UniProt Q03530); assay type: biochemical
T4 sequence (Q03530 whole entry): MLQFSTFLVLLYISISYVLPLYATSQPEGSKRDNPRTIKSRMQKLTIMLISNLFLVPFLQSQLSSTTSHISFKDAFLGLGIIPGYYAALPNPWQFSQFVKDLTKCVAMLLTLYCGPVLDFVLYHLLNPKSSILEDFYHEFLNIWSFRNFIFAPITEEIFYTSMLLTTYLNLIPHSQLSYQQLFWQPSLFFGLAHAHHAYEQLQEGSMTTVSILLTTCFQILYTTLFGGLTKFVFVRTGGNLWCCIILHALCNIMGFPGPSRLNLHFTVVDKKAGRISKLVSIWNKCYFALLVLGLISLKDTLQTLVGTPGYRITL

Trypsin = Trypsin (Sus scrofa, UniProt P00761); test: porcine trypsin inhibitors, dose response, selectivity assay for Rce1 protease inhibitor project, biochemical, quenched peptide fluorescence, cherry-pick (AID 488789)
Chain of Trypsin (P00761 whole entry): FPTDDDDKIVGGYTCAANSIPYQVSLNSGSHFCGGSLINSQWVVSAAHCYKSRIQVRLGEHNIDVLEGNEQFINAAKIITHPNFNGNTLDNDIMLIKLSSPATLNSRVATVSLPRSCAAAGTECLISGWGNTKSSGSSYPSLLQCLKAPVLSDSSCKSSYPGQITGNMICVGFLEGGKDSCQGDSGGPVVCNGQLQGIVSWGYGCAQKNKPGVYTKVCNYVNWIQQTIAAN

[15] = Luminescence Cell-Based Dose Response HTS to Identify Activators of Luciferase Translation or Activity in H4 […] Cells. [Related pubchem assays: 1829 (Project Summary), 1814 (Primary HTS)]; assay type: functional
HeLa = test: HeLa cell cytotoxicity, dose response, cytotoxicity control for MITF activator project, CellTiter-Glo luminescence, cherry-pick samples (AID 540259); assay type: functional, cell-based; details: Homo sapiens
H4 = test: Luminescence Cell-Based Dose Response HTS to Identify Activators of 5'UTR Stem-Loop Driven Prion Protein mRNA Translation in H4 Neuroglioblastoma Cells. [Related pubchem assays: 1829 (Project Summary), 1814 (Primary HTS)]; assay type: functional; details: Homo sapiens
HEK293 [16] = test: cells; details: Homo sapiens
[17] = cytotoxicity in HEK-293T cells, dose response, cytotoxicity control for TCR NF-kB inhibitor project, luminescence, T-cell screen hits (AID 489026); assay type: functional, cell-based;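 further: cells exposed to compound about 14 hours before the viability readout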
Tumor necrosis factor = Tumor necrosis factor (Homo sapiens, UniProt P01375); test: TNFa-triggered NF-kB activation inhibitors, SAR follow-up, cell-based, revised (AID 2337); assay type: functional
Chain of Tumor necrosis factor (P01375 whole entry, the tested form may be a part): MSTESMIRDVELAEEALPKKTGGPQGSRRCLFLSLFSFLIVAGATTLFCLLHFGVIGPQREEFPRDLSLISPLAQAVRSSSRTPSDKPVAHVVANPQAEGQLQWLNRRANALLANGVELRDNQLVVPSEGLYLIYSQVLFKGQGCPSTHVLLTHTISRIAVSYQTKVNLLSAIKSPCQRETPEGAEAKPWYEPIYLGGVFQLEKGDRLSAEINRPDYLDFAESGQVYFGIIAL

[18] = molecular target: T5, Nucleotide-binding oligomerization domain-containing protein 1 (Homo sapiens, UniProt Q9Y239); test: NOD1 signaling inhibitors, SAR follow-up, revised (AID 2333); assay type: functional
T5 sequence (Q9Y239 whole entry): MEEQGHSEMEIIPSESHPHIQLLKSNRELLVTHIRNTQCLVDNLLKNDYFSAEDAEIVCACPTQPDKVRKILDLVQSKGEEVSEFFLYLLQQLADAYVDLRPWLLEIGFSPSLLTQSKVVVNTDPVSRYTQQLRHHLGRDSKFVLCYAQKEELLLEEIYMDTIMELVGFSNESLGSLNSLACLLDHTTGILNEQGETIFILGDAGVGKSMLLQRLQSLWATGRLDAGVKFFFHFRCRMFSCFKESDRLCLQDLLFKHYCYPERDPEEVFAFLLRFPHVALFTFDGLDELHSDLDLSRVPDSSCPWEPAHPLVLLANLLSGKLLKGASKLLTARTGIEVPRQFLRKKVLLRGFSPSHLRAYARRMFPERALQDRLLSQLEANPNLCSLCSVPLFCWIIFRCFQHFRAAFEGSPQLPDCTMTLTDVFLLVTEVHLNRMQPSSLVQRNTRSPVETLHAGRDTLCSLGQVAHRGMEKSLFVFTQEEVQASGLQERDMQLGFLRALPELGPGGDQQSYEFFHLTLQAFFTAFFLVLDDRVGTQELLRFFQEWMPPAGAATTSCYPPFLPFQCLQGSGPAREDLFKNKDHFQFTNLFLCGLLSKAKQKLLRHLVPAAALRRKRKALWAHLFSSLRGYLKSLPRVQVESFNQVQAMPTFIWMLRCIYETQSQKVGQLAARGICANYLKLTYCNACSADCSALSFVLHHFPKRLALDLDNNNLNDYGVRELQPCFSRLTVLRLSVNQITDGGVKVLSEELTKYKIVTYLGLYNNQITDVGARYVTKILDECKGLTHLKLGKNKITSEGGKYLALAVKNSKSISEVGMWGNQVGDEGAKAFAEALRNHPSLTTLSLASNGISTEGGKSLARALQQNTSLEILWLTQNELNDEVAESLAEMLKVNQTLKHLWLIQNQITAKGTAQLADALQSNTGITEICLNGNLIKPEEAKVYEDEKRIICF

## C=CCn1c(SCC(=O)Nc2cccnc2Cl)nnc1-c1ccc(Cl)cc1
Coagulation factor XII
  IC50: > 50 µM (inactive)

## COc1cc(/C=C2\CC(C(C)(C)C)C/C(=C\c3cc(OC)c(OC)c(OC)c3)C2=O)cc(OC)c1OC (stereo not given)
HEK293 [1]
  IC50: 18.3 µM (active)
BJ [2]
  EC50: 12 µM (inconclusive)
[3]
  EC50: 4.23 µM (active)
HEK293 [4]
  IC50: > 20 µM (inactive)
HEK293 [5]
  IC50: 4.76 µM (active)
BJ [6]
  EC50: 5.18 µM (inconclusive)
BJ [7]
  EC50: 4.94 µM (active)
INS1
  AC50: 5.52 µM (active)
HEK293 [8]
  IC50: 4.98 µM (active)
HEK293 [9]
  EC50: 5.25 µM (active)
[10]
  EC50: 8.66 µM (active)

## Cc1cccc(C(=O)Nc2nnc(S(=O)(=O)N3CCCCCC3)s2)c1
[11]
  IC50: > 80 µM (inactive)

## CCc1cc(OCCN(C)C)ccc1Cl
[12]
  EC50: 0.267 µM (active)

## CC(C)OCCCNC(=O)c1c(N)n(CC2CCCO2)c2nc3ccccc3nc12 (stereo not given)
CAAX prenyl protease 2 [13]
  AC50: 9.35 µM (active)
CAAX prenyl protease 2 [14]
  AC50: 15 µM (active)
Trypsin
  AC50: 5.99 µM (active)

## CC(=O)Nc1ccc(S(=O)(=O)NCCNc2ccccc2[N+](=O)[O-])cc1
Coagulation factor XII
  IC50: > 50 µM (inactive)

## Cc1ncc(CN2CCCC(C(=O)c3ccc(C(C)(C)C)cc3)C2)s1 (stereo not given)
Coagulation factor XII
  IC50: > 50 µM (inactive)

## c1ccc(CSc2ccc(-c3ccc4c(c3)OCO4)nn2)cc1
[15]
  EC50: 4.69 µM (active)
HeLa
  AC50: 112 µM (active)
H4
  EC50: > 120 µM (not active)

## Cc1cccn2c(CNCCc3ccccn3)c(C(=O)N3CCOCC3)nc12
[12]
  EC50: 1.68 µM (active)

## Oc1ccc(-c2nccc(-c3ccccn3)n2)cc1
HeLa
  AC50: 55.2 µM (active)

## O=C(COc1ccc2c(-c3ccccc3)cc(=O)oc2c1)Nc1cccnc1
HEK293 [1]
  IC50: 18.7 µM (active)
HEK293 [4]
  IC50: > 20 µM (inactive)
HEK293 [16]
  IC50: > 20 µM (inactive)
HEK293 [5]
  IC50: 2.21 µM (active)
[17]
  IC50: > 80 µM (inactive)
Tumor necrosis factor
  IC50: 4.59 µM (active)
[18]
  IC50: 3.17 µM (active)
HEK293 [8]
  IC50: 10.8 µM (inactive)
HEK293 [9]
  EC50: 0.75 µM (active)
[10]
  EC50: > 20 µM (inactive)

## C=CCOc1c(Cl)cc(CNc2ccc(N(C)C)cc2)cc1OC
[11]
  IC50: > 80 µM (inactive)

## CCn1c(CN2CCN(Cc3ccc(C)cc3)C(CCO)C2)nc2ccccc21 (stereo not given)
[12]
  EC50: 0.668 µM (active)

## O=C(/C=C/c1cn(-c2ccccc2)nc1-c1cccs1)NCCN1CCOCC1
CAAX prenyl protease 2 [13]
  AC50: > 100 µM (inactive)
CAAX prenyl protease 2 [14]
  AC50: 10.8 µM (active)

## CC(=O)c1ccc(N2Cc3ccccc3/C2=N\C(=O)c2cccs2)cc1
HeLa
  AC50: 76.6 µM (active)

## CCn1cc(CN2CCCC(C(=O)Nc3ccc(-c4nc5ccccc5[nH]4)cc3)C2)c(C)n1 (stereo not given)
[12]
  EC50: 0.267 µM (active)
